Measurements from US10800815B2, “Kv1.3 potassium channel antagonists” (cgtx-Peptide Development GmbH, priority 2014, dated 2020).

Experiments:
[1] = target: T1, human Kv1.3 (hKv1.3) channel (Homo sapiens, UniProt P22001); test: Planar patch clamp (Port-A-Patch) of Kv1.3 potassium currents in Sf 21 cells (Example 1); assay type: cell-based
T1 construct: expressed in transfected cells; host or cells: Sf21 (Spodoptera frugiperda) insect cells, baculovirus infection
Experimental: Potassium currents were measured by use of Spodoptera frugiperda (Sf 21) cells, which express the human Kv1.3 (hKv1.3) channel. The channel activity is induced upon membrane depolarization to voltages more positive than −40 mV. […] In Sf 21 cells hKv1.3 has an average current amplitude between 250 pA-5 nA at +40 mV.
1-3 days after infection potassium currents were recorded with the planar patch clamp technique, using the Port-A-Patch (Nanion Technologies GmbH). Ionic currents were activated by voltage steps to a depolarizing potential of +40 mV for 200 ms.
Sf 21 cells were cultured in Grace's insect cell medium supplemented with 10% FBS (Fetal Bovine Serum), 2 mM Glutamine, 1×Yeastolate (from 50× stock solution) and 0.1% Pluronic® F68 (BASF) to a cell density of 2-3×10^6 cells/ml.
External buffer: 160 mM NaCl • 4.5 mM KCl • 1 mM MgCl2 • 2 mM CaCl2 • 5 mM D-Glucose monohydrate • 10 mM HEPES/NaoH pH7.4
Internal buffer: 75 mM KCl • 10 mM NaCl • 70 mM K-Fluoride • 2 mM MgCl2 • 10 mM EGTA • 10 mM HEPES/KOH pH 7.2
Peptides were dissolved at 1 μg/μl in 20 mM NaPO4 buffer pH 8.2 (1 mg in 1 ml folding buffer) and dialysed against the same buffer 3×1 L, Float-a-Lyzer cut off 500 Da (Spectrapor) at room temperature.
HsTx 1 binding was tested at various concentrations of e.g. 100 pM, 1 nM, 10 nM, 50 nM, 100 nM, 500 nM, and 1 μM—depending on the tested channel. […]

[2] = test system: white blood cells in peripheral blood; test: Haematology (WBC, neutrophil granulocytes, lymphocytes) in AIA rats; assay type: in vivo, rat
Experimental: For the blood withdrawal the animals were narcotized briefly, the tail was disinfected and the tail vein was punctured with a cannula, 50 μl of blood were withdrawn with a heparin coated pipette and mixed with 5 μl of a stabilising agent (CPD) and 1 μl heparin (1.5 U/μl diluted 1:4 in 0.9% NaCl).
White Blood Cells (WBC) were counted with a Coulter Counter in the automatic mode.
Blood samples were taken regularly for monitoring of hematological parameters. Haematological parameters were assessed in all animals weekly before induction, at day of induction and 10 days after induction (days −21, −14, −7, 0 and 10). […] Absolute counts of white blood cells (WBC), neutrophil granulocytes and lymphocytes were analyzed among others, the last two also stated in percentage of total WBC. EDTA whole blood of seven individuals from both vehicle and cgtx-544 peptide therapy group was measured with Sysmex XT-2000i.
For screening the state of health of all individuals, complete haemograms were used again. EDTA whole blood of seven individuals from both MTX high-dose and low-dose therapy groups were measured with Sysmex XT-2000i.V weekly before induction, at day of induction and 4 and 7 days after induction (day −21, −14, −7, 0, 4 and 7; MTX low-dose therapy group additionally on day −3, when i.v. application started).

antibody formation = assay type: in vivo, rat
Experimental: FIG. 27 Analysis of mBSA specific antibodies. In the experimental groups H and I all animals have produced antibodies against the antigen mBSA during the immunization and AIA induction period.
The remaining swelling in treated animals was assumed to be due to antibody/antigen reactions. Therefore, immunized as well as naïve animals were tested for the presence of mBSA specific antibodies. Antibodies against mBSA could be detected in all immunized animals of groups H and I seven days after arthritis induction (FIG. 27).

T1 sequence (P22001 whole entry): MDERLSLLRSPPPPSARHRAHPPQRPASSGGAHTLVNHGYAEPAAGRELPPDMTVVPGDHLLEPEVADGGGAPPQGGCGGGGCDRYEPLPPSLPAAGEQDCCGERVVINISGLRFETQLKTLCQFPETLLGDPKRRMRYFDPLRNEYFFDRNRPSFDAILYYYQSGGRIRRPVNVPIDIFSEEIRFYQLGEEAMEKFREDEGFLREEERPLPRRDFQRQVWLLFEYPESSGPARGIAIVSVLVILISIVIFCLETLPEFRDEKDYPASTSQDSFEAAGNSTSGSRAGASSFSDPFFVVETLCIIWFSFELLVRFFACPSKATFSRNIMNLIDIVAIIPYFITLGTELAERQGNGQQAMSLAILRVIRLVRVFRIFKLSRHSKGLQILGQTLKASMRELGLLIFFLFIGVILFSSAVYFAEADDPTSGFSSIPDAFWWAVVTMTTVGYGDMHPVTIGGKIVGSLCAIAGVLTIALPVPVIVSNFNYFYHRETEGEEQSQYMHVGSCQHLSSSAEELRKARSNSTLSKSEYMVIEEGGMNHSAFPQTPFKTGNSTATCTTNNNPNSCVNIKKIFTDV

CC[C@H](C)[C@H](NC(=O)[C@@H](N)[C@@H](C)O)C(=O)N[C@H](C(=O)N[C@@H](CC(N)=O)C(=O)N[C@H](C(=O)N[C@@H](CCCCN)C(=O)N[C@H]1CSSC[C@@H]2NC(=O)[C@H](CCCCN)NC(=O)CNC(=O)[C@H](Cc3ccc(O)cc3)NC(=O)[C@@H]3CCCN3C(=O)[C@@H]3CSSC[C@@H](C(=O)O)NC(=O)[C@H](CCCNC(=N)N)NC(=O)[C@H](CC(N)=O)NC(=O)[C@@H]4CSSC[C@H](NC(=O)[C@@H]5CCCN5C(=O)[C@@H]5CCCN5C(=O)[C@H](CC(C)C)NC(=O)[C@H](CSSC[C@H](NC(=O)[C@H](CCCCN)NC(=O)[C@H](CCCNC(=N)N)NC(=O)[C@H](CC(N)=O)NC(=O)[C@H](CCSC)NC2=O)C(=O)N[C@@H](CCCCN)C(=O)N4)NC(=O)[C@H](CCC(N)=O)NC(=O)[C@H](CCCCN)NC(=O)[C@@H]2CCCN2C(=O)[C@H](CO)NC(=O)[C@H]([C@@H](C)O)NC1=O)C(=O)N[C@@H](CCCCN)C(=O)N[C@@H](C)C(=O)N[C@@H](CCC(N)=O)C(=O)N[C@@H]([C@@H](C)O)C(=O)NCC(=O)N3)C(C)C)[C@@H](C)CC [Compound 7]
selectivity for Kv1.3 vs. Kv1.1 compared to HsTx 1 [1]: higher selectivity | IC50 ([1]; read-out: IC50 on Kv1.3 before the start of the plasma stability experiment, incompletely folded peptide, n=5 cells, Sf21): 46.1 nM | generalized immunosuppression ([2]; 1 mg/kg 1× daily i.v.): did not show a generalized immunosuppression | WBC, neutrophil granulocytes and lymphocytes, absolute and relative cell counts ([2]; curative treatment, 1 mg/kg daily i.v.): comparable to vehicle treated individuals | WBC, neutrophil granulocytes and lymphocytes, absolute and relative cell counts ([2]; preventive treatment, daily i.v. from day −3): comparable to vehicle treated individuals | reactivity of immunized animals on cgtx-544(Mix) (anti-peptide antibodies) (antibody formation; after 10 days under peptide therapy): no reactivity | suppression of B-lymphocytes and antibody formation (mBSA specific antibodies) (antibody formation; seven days after arthritis induction): does not seem to suppress B-lymphocytes and antibody formation
